In patent publication KR20240014570A, “양전하성 응집-유도 방출 화합물 및 이의 용도” (priority 2020, dated 2022):

Columns and labels:
[1] = system: S.aureus (그람양성, ATCC 25923); assay: Photodynamic antibacterial effect, agar plate colonies; type: cell-based; settings: 1 μM; white light 25 mW/cm2, 10 min
[2] = system: Gram-negative bacteria (그람음성균): E.coli, ESBL-EC; type: cell-based; settings: 1 μM; white light 25 mW/cm2, 10 min
all strains (모든 균주) = assay: Photodynamic antibacterial effect, all strains; type: cell-based; settings: 3 μM, with or without white light
[3] = system: ESBL E.coli (ESBL-EC, 그람 음성, ATCC BAA-198); settings: same conditions: 3 μM, white light 25 mW/cm2, 10 min
[4] = system: ESBL E.coli (ESBL-EC, 그람 음성, ATCC BAA-198); assay: microbe, parasite or virus in culture; settings: Escherichia coli, ATCCBAA198, 10 min, read-out: inhibition of ESBL-EC growth

Compound | photodynamic antibacterial activity against Gram-positive bacteria [1] | photodynamic antibacterial effect against Gram-negative bacteria [2] | bacterial colonies (all strains (모든 균주)) | photodynamic antibacterial effect [3] | inhibition at 3 µM [4] [%]
C=Cc1c(C)c2cc3nc(c(CC(=O)O)c4[nH]c(cc5nc(cc1[nH]2)C(C)=C5CC)c(C)c4C(=O)O)C(CCC(=O)O)C3C (stereo not shown) [Ce6] | 광역학적 항균 활성을 보였지만 | 유의한 효과를 확인할 수 없었다 | – | – | –
C(=Cc1ccnc2ccccc12)c1ccc(-c2ccc(N(c3ccccc3)c3ccccc3)cc2)s1 [DQVTA] | – | – | 변하지 않음 | – | –
CN(C)c1ccc2nc3ccc(=[N+](C)C)cc-3sc2c1 [MB, 메틸렌 블루] | 광역학적 항균 활성을 보였지만 | 유의한 효과를 확인할 수 없었다 | – | 유의한 광역학적 항균 효과를 나타내지 않았고 | ~50
